Laboratory results from article PMC11530130, “Peripherally restricted PICK1 inhibitor mPD5 ameliorates pain behaviors in murine inflammatory and neuropathic pain models” (JCI Insight, 2024).
Where “and” joins values, the source holds several entries; their conditions need not be identical. Equal entries are not always repeated.

Legend:
[1] = system: mice, streptozocin (STZ) model of type 1 diabetes; assay: STZ model of diabetic neuropathy, von Frey; type: in vivo, mouse
Protocol: Induction of Diabetic neuropathy (STZ model).
Diabetes was induced by a single i.p. injection of […] streptozocin (STZ) solution (100 μL/10 g, Sigma-Aldrich S0130, batch #WXBB7152V) in male seven-week-old C57BL/6J (Charles River) mice. Glycemia was tested before, and seven days after injection. All injected mice had blood glucose concentration >350 mg/dL from day seven and were used for analgesic testing of the compounds from day 14. One mouse had to be euthanized at seven days post injection. This experiment was performed by Phenotype Expertise, Marseilles, France - Pain and CNS behaviour CRO under supervision of Stéphane Gaillard, PhD (CEO). […]
The skin wound was closed with two medical clips (Michel Suture Clips, 7.5x1.75 mm, Angthos, 12040-01). Post-surgical analgesia included s.c. injection of 5 mg/kg carprofen (Carprosan vet, 50 mg/mL mixed 1:25 in sterile ddH2O, Dechra, Le Vet Beheer B.V., Netherlands, Batch: 050520) right after surgery and the […]
following day. […]
The test battery of the CIBP model was carried out 45 or 90 min after morphine and mPD5 administration respectively to accommodate the peak efficacy […]
Mechanically evoked pain (von Frey test).
Unless otherwise specified, von Frey occurred as described in the following. Animals were habituated to the experimental room for a minimum of 60 min before initiation of the experiment. Mechanical paw withdrawal threshold (PWT) was determined by von Frey measurements of both hind paws. Von Frey filaments ranging from 0.04 to 2 g (g = gram- […]
Filaments in ascending order were applied to the frontocentral plantar surface of the hind paws.
Mice were placed in PVC plastic boxes (11.5 cm x 14 cm) on a wire mesh and allowed minimum 20 min habituation prior of experiment initiation. Each von Frey hair was applied five times with adequate resting periods between each application and number of withdrawals recorded. The withdrawal threshold was determined as the von Frey filament eliciting at least three positive trials out of the five applications in two consecutive filaments. A positive trial was defined as sudden paw withdrawal, flinching and/or paw licking induced by the filament.
For the CIBP model, two habituation sessions were performed on separated days with mice placed in the von Frey equipment for 1-1.5 hours in the presence of the experimenter on day one and random von Frey pocking with the 0.6 g filament on day two. Von Frey monofilaments (North Coast Touch Test, North Coast Medical, Inc.) with target forces of 0.04g, 0.07g, 0.16g, […]
down method” (PWT=10Xf+kδ) starting with the 0.6 g filament. Positive response was defined as; withdrawal, shaking or grooming of paw following a 2-3 second stimulation. In case, of unclear response, stimulus was repeated after 10-15 seconds.
For the STZ model, the mechanical threshold response of the injected mice was measured with […]
injection of test compounds on day 14, mechanical threshold was measured at 1 hour, 2 hours, 4 hours and 6 hours and again on day 15. […]
Thermally evoked pain (Hargreaves test).
A baseline Hargreaves test was performed on day 0 before inflammatory pain was induced as described in section 2.13. In the Hargreaves test, the mouse was placed in a container on a glass table and left to habituate for at least 15 min. Using the Hargreaves apparatus, a heat beam from beneath was directed towards the hind paws of the mouse, and the paw withdrawal time

[2] = system: mice, CFA model of inflammatory pain; assay: Single exposure place preference (sePP), CFA mice; type: in vivo, mouse; set-up: time spent in the paired compartment, individual mice: reference not given here
Protocol: On days 6-8, the escape hole was moved
90 degrees, and all mice went through the second bout of training. On day nine, a second probe trial was performed testing the reversal learning of the mice.
Cancer induced bone pain was induced as described in the “Induction of cancer induced bone pain (CIBP model)"-section. For the assessment of limb use, all mice from one cage were placed in an empty transparent plastic box and left for ten min to habituate. One mouse at a time was moved by tunnel handling or scooping to an identical plastic box for the limb use test. […]
gait, 3 Insignificant limping, 2 Significant limping and shift in bodyweight towards the healthy limb 1 Significant limping and partial lack of use of ipsilateral leg 0 Total lack of use of ipsilateral leg. A score of 0 was used as a humane endpoint. Urine and faeces were cleaned from the plastic box with a dry paper towel between mice from the same cage, and a new plastic box was used for mice from different cages. The limb use test was video filmed for later […]
Assessment of static weight bearing. […]
Initial perception of the drugs was measured by single exposure place preference experiments performed in an elongated three compartment apparatus (67.5 cm x 24 cm) with a biased design of different floor textures and wall patterns and a neutral zone in the middle. […]

Q: Which “paw withdrawal threshold, left paw, group mean” value (shortened to “paw withdrawal threshold”) ([1]; 2 umol/kg, +1h, n = 10) does the source give for `CCCCCCCCCCCCCC(=O)N(CCOCCOCCC(=O)N[C@@H](Cc1c[nH]cn1)C(=O)N[C@@H](Cc1c[nH]c2ccccc12)C(=O)N[C@@H](CC(C)C)C(=O)N[C@@H](CCCCN)C(=O)N[C@H](C(=O)O)C(C)C)CCOCCOCCC(=O)N[C@@H](Cc1c[nH]cn1)C(=O)N[C@@H](Cc1c[nH]c2ccccc12)C(=O)N[C@@H](CC(C)C)C(=O)N[C@@H](CCCCN)C(=O)N[C@H](C(=O)O)C(C)C` [mPD5, myristoyl-NPEG4-(HWLKV)2] here?
A: 0.44

Q: What about the “paw withdrawal threshold” value ([1]; 2 umol/kg, +2h, n = 10) of the same molecule?
A: 0.37

Q: And the “paw withdrawal threshold” value ([1]; 2 umol/kg, +4h, n = 10)?
A: 0.37

Q: What about the “paw withdrawal threshold” value ([1]; 2 umol/kg, +6h, n = 10) of the same molecule?
A: 0.25

Q: What about the “paw withdrawal threshold” value ([1]; 2 umol/kg, D15, n = 10) of the same molecule?
A: 0.17

Q: And the “paw withdrawal threshold” value ([1]; 10 umol/kg, +1h, n = 10)?
A: 0.58

Q: And the “paw withdrawal threshold” value ([1]; 10 umol/kg, +2h, n = 10)?
A: 0.6

Q: What about the “paw withdrawal threshold” value ([1]; 10 umol/kg, +4h, n = 10) of the same molecule?
A: 0.38

Q: And the “paw withdrawal threshold” value ([1]; 10 umol/kg, +6h, n = 10)?
A: 0.21

Q: And the “paw withdrawal threshold” value ([1]; 10 umol/kg, D15, n = 10)?
A: 0.28

Q: And the “extension of the effect at the highest dose” value ([1]; male mice, s.c. 10 μmol/kg)?
A: extended for another hour

Q: What about the “effect on mechanical hypersensitivity (PWT)” value ([1]; male mice, s.c. 2 and 10 μmol/kg, the first hour after injection) of the same molecule?
A: significant relief of mechanical hypersensitivity

Q: What about the “time in the paired compartment compared with the PBS animals (sePP)” value ([2]; CFA animals, s.c. 30 μmol/kg in the gray (paired) compartment) of the same molecule?
A: significantly more time in the paired compartment

Q: And the “time spent in the paired compartment, individual mice” value ([2]; CFA mice conditioned with 30 μmol/kg)?
A: 1.043 and 0.9432 and 1.1179 and 0.8953 and 1.389 and 1.4664 and 0.991 and 1.199 and 1.802 and 0.8487 and 1.092 and 1.425
